According to the supplement of paper PMC10307832:

What was measured:
Test in all cases: relative viability (nuclei count vs DMSO), 5 days (fraction); higher = more cells survive
RU-SKI 43 + Luminespib = compound: CC[C@@H](C)CNCC(=O)N1CCC2=C([C@@H]1COC3=CC=CC(=C3)C)C=CS2 [RU-SKI 43] + CCNC(=O)c1noc(-c2cc(C(C)C)c(O)cc2O)c1-c1ccc(CN2CCOCC2)cc1 [Luminespib] (partner 0.01 µM)
How it was run: (§1)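 Lung cancer cell lines were seeded in 1536-well plates and dosed by pin tool the next day, with either a single drug or a fixed anchor-drug dose combined with five library-drug doses (not always all listed) spaced in √10 steps. Five days later, one step fixed the cells and stained their nuclei (final 0.05% Triton X-100, 1% formaldehyde, 1 ug/ml Hoechst), and nuclei were counted on 4× images. Relative viability is the nuclei count in treated wells divided by the count in vehicle wells, and each value is the median of duplicate plates.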

Irinotecan + Lapatinib = compound: CCc1c2c(nc3ccc(OC(=O)N4CCC(N5CCCCC5)CC4)cc13)-c1cc3c(c(=O)n1C2)COC(=O)[C@]3(O)CC [Irinotecan] + CS(=O)(=O)CCNCc1ccc(-c2ccc3ncnc(Nc4ccc(OCc5cccc(F)c5)c(Cl)c4)c3c2)o1 [Lapatinib] (partner 2 µM)
How it was run: as §1

RU-SKI 43 + AZD7762 = compound: CC[C@@H](C)CNCC(=O)N1CCC2=C([C@@H]1COC3=CC=CC(=C3)C)C=CS2 [RU-SKI 43] + NC(=O)Nc1cc(-c2cccc(F)c2)sc1C(=O)N[C@H]1CCCNC1 [AZD7762] (partner 0.2 µM)
How it was run: as §1

RU-SKI 43 + Crizotinib = compound: CC[C@@H](C)CNCC(=O)N1CCC2=C([C@@H]1COC3=CC=CC(=C3)C)C=CS2 [RU-SKI 43] + C[C@@H](Oc1cc(-c2cnn(C3CCNCC3)c2)cnc1N)c1c(Cl)ccc(F)c1Cl [Crizotinib] (partner 1 µM)
How it was run: as §1

| Cell Line | relative viability (RU-SKI 43 + Luminespib; first compound 0.1 µM) | relative viability (RU-SKI 43 + Luminespib; first compound 0.3162 µM) | relative viability (RU-SKI 43 + Luminespib; first compound 1 µM) | relative viability (RU-SKI 43 + Luminespib; first compound 3.162 µM) | relative viability (RU-SKI 43 + Luminespib; first compound 10 µM) | relative viability (Irinotecan + Lapatinib; first compound 0.6325 µM) | relative viability (Irinotecan + Lapatinib; first compound 2 µM) | relative viability (Irinotecan + Lapatinib; first compound 6.325 µM) | relative viability (Irinotecan + Lapatinib; first compound 20 µM) | relative viability (RU-SKI 43 + AZD7762; first compound 0.1 µM) | relative viability (RU-SKI 43 + AZD7762; first compound 0.3162 µM) | relative viability (RU-SKI 43 + AZD7762; first compound 1 µM) | relative viability (RU-SKI 43 + AZD7762; first compound 3.162 µM) | relative viability (RU-SKI 43 + AZD7762; first compound 10 µM) | relative viability (RU-SKI 43 + Crizotinib; first compound 0.1 µM) | relative viability (RU-SKI 43 + Crizotinib; first compound 0.3162 µM) | relative viability (RU-SKI 43 + Crizotinib; first compound 1 µM) | relative viability (RU-SKI 43 + Crizotinib; first compound 3.162 µM) | relative viability (RU-SKI 43 + Crizotinib; first compound 10 µM) |
| --- | --- | --- | --- | --- | --- | --- | --- | --- | --- | --- | --- | --- | --- | --- | --- | --- | --- | --- | --- |
| PC-3 [JPC-3] | 0.738 | 0.633 | 0.795 | 0.615 | 0.537 | 0.3 | 0.45 | 0.311 | 0.316 | 0.885 | 0.671 | 0.828 | 0.834 | 0.336 | 0.918 | 1.14 | 0.998 | 0.922 | 0.963 |
| NCI-H1355 | 0.577 | 0.822 | 0.869 | 0.76 | 0.741 | 0.534 | 0.909 | 0.264 | 0.242 | 0.711 | 0.724 | 0.801 | 0.697 | 0.771 | 1.07 | 1.14 | 1.17 | 1.26 | 1.01 |
| NCI-H460 | 0.035 | 0.0298 | 0.0295 | 0.0325 | 0.0355 | 0.287 | 0.475 | 0.0664 | 0.0537 | 0.533 | 0.756 | 0.787 | 0.519 | 0.638 | 0.869 | 1.2 | 0.91 | 1.01 | 0.551 |
| 201T | 1.06 | 1.06 | 1.04 | 1.06 | 1.03 | – | 1.03 | 0.738 | 0.322 | 0.628 | 0.603 | 0.602 | 0.531 | 0.567 | 1.02 | 0.991 | 1.06 | 1.06 | 0.992 |
| HOP-62 | 1 | 1.29 | 1.07 | 0.984 | 1.04 | 0.471 | 0.258 | 0.143 | 0.217 | 0.463 | 0.643 | 0.71 | 0.704 | 0.529 | 0.7 | 1.01 | 1.09 | 0.829 | 0.977 |
| NCI-H1651 | 0.697 | 0.9 | 0.915 | 0.807 | 0.658 | 0.293 | 0.536 | 0.179 | 0.101 | 0.506 | 0.467 | 0.549 | 0.535 | 0.456 | 0.886 | 0.971 | 0.891 | 0.887 | 0.865 |
| CAL-12T | 0.207 | 0.364 | 0.179 | 0.19 | 0.363 | 0.71 | 0.543 | 0.475 | 0.442 | 0.644 | 0.735 | 0.698 | 0.714 | 0.648 | 0.494 | 0.747 | 0.652 | 0.896 | 0.653 |
| NCI-H2126 | 0.837 | 1.09 | 1.11 | 0.959 | 0.891 | – | 0.632 | 0.304 | 0.357 | 1.05 | 1.17 | 1.09 | 1.05 | 1.04 | 1.01 | 1.24 | 1.06 | 1.06 | 1.01 |
| NCI-H650 | 0.748 | 0.861 | 0.901 | 0.852 | 0.727 | 0.757 | 0.693 | 0.275 | 0.31 | 0.944 | 1.09 | – | 1.04 | 1.06 | 0.76 | 0.622 | 0.694 | – | 0.619 |
| LK-2 | 0.182 | 0.168 | 0.171 | 0.189 | 0.177 | 0.852 | 1.33 | 0.411 | 0.32 | 0.342 | 0.372 | 0.486 | 0.49 | 0.468 | 0.206 | 0.219 | 0.256 | – | 0.199 |
| NCI-H2347 | 0.443 | 0.717 | 0.639 | 0.357 | 0.35 | 0.682 | 0.738 | 0.449 | 0.444 | 0.732 | 0.74 | 0.812 | 0.614 | 0.642 | 0.745 | 0.568 | 0.778 | 0.67 | 0.735 |
| PC-14 | 0.146 | 0.143 | 0.126 | 0.157 | 0.159 | 0.314 | 0.262 | 0.15 | 0.16 | 0.392 | 0.377 | 0.441 | 0.32 | 0.379 | 0.827 | 0.891 | 0.92 | 0.804 | 0.749 |
| NCI-H2170 | 0.751 | 0.73 | 0.73 | 0.755 | 0.67 | 0.271 | 0.264 | 0.231 | 0.2 | 0.846 | 1.07 | 0.959 | 0.866 | 0.882 | 1.26 | 1.42 | 1.49 | 1.22 | 1.07 |
| LOU-NH91 | 0.307 | 0.304 | 0.431 | 0.36 | 0.317 | 0.685 | 0.8 | 0.414 | 0.402 | 0.789 | 0.74 | 0.85 | 0.831 | 0.74 | 0.795 | 0.818 | 0.719 | 0.754 | 0.715 |
| NCI-H596 | 0.89 | 1.05 | 1.06 | 1.12 | 0.744 | 1.11 | 1.03 | 0.613 | 0.579 | 1.22 | 1.17 | 1.12 | 1.29 | 1.05 | 0.998 | 0.904 | 0.987 | 1.06 | 1.03 |
| LXF-289 | 0.729 | 0.853 | 0.852 | 0.751 | 0.568 | 0.881 | 0.883 | 0.315 | 0.236 | 1.13 | 1.11 | 1.14 | 1.09 | 1.03 | 0.815 | 0.784 | 0.806 | 0.83 | 0.736 |
| NCI-H727 | 0.365 | 0.393 | 0.26 | 0.362 | 0.664 | 0.339 | 0.503 | 0.445 | 0.369 | – | 0.707 | 0.724 | 0.638 | 0.543 | 0.688 | 0.975 | 0.796 | 0.872 | 0.7 |
